This is an account of results in US9783552B2, “Soluble guanylate cyclase activators” (MERCK SHARP & DOHME CORP., priority 2013, dated 2017).

The EC50 is the concentration needed to bring the measured effect to its halfway point. A low value points to a more potent agent.

The target of the assay is T1, sGC α1/β1 heterodimer (Homo sapiens, UniProt Q02108+Q02153).
T1 construct: expressed in transfected cells
T1 sequence (Q02108 1-690): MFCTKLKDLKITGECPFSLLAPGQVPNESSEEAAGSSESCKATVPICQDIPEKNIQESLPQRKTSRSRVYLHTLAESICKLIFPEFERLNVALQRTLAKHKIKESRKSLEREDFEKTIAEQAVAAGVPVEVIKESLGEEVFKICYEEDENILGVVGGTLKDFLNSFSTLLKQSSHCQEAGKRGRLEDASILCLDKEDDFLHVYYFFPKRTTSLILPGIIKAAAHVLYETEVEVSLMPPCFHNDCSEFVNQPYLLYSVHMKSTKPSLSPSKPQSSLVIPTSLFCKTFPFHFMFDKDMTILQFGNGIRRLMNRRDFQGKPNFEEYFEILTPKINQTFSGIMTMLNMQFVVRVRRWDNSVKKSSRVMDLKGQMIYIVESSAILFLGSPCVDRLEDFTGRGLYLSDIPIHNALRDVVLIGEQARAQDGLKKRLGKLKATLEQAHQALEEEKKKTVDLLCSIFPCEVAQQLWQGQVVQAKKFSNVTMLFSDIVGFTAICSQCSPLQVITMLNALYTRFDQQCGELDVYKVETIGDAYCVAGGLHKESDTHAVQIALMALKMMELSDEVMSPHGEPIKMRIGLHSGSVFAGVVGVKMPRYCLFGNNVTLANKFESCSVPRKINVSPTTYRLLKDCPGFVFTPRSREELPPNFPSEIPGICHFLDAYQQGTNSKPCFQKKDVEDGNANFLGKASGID
T1 sequence (Q02153 1-619): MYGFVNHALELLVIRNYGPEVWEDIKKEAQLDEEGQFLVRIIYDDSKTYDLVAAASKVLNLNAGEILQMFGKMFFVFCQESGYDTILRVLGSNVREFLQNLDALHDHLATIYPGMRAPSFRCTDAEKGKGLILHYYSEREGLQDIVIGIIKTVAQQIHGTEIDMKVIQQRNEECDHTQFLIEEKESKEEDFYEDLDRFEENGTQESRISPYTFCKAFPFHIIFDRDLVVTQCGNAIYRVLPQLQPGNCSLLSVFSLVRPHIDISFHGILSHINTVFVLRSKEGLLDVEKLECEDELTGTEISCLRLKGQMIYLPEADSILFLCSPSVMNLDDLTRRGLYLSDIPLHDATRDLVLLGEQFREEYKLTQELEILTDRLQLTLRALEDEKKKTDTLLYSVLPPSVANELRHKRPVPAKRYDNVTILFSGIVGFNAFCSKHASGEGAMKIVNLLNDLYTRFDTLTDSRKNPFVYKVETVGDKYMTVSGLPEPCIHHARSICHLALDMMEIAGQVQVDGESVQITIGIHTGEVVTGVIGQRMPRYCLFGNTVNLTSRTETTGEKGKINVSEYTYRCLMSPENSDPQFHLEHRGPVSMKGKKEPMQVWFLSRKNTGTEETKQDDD
The assay can be described thus: Cell-Based sGC Functional Assay (CASA Assay). As to conditions: CHO-K1/sGC cells; for EC50: intracellular cGMP by HTRF, 1 hr at 37° C., IP from 4P fit, presence or absence of 1 μM DETA-NO not given; for Emax: cGMP as percentage of maximum cGMP production of Compound A (=100% activation), read-out: % ACT (percent activation). The text has this: Biological Assays: Cell-Based sGC Functional Assay (CASA Assay)
sGC is a heme-containing enzyme that converts GTP to secondary messenger cGMP. Increases in cGMP levels affect several physiological processes including vasorelaxation through multiple downstream pathways. […] Heme-dependent activators (HDAs) preferentially activate sGC containing a ferrous heme group. To determine the effect of sGC activators on enzyme activity, the CASA assay was developed to monitor the generation of cGMP in a cell line that stably expresses the heterodimeric sGC protein.
A CHO-K1 cell line stably expressing the sGC α1/β1 heterodimer was generated using a standard transfection protocol. CHO-K1 cells were transfected with plasmids pIREShyghsGCα1 and pIRESneo-hsGCβ1 simultaneously using FUGENE reagent. Clones that stably express both subunits were selected with hygromycin and neomycin for ˜2 weeks. Clone #7 was chosen for the assay and was designated CHO-K1/sGC. CHO-K1/sGC cells were maintained in F-K12 medium containing 10% heat-inactivated Fetal Bovine Serum (FBS), 100 μg/mL penicillin/streptomycin, 0.5 mg/mL hygromycin and 0.25 mg/mL G418. The cells were then cryopreserved in LN2. On the day of the assay, cells were thawed and resuspended in EBSS Assay Buffer (EAB, Sigma, E3024) supplemented with 5 mM MgCl2, 10 mM HEPES (4-(2-hydroxyethyl)piperazine-1-ethanesulfonic acid) and 0.05% BSA (bovine serum albumin) and cell density was then adjusted to 4×10^5/mL with EAB. IBMX (3-isobutyl-1-methylxanthin, 0.5 mM) was added to inhibit degradation of cGMP. Compounds were diluted from DMSO stock solutions and added to the assay at a final DMSO concentration of 2.5%. Cells were incubated with compounds in the presence and absence of 1 μM of Diethylenetriamine/nitric oxide adduct (DETA-NO; Sigma, 17018) for 1 hr at 37° C. At the end of the incubation period, the reaction was terminated and the cells were lysed with the detection reagents from Cisbio Kits. The level of intracellular cGMP was determined using an HTRF-based assay kit (CisBio, 62GM2PEC), which detects the displacement of a fluorescence labeled cGMP from its specific antibody. The cGMP produced by test compounds was directly compared to the maximum cGMP production (this value was set to equal 100% activation) of the published sGC-HDA Compound A:
[drawing 123] (Example 1 in WO 2010/065275, published Jun. 10, 2010). The test compounds' activity was then expressed as a percentage of Compound A, the standard in every experiment. This percent activation was calculated either in the presence or absence of DETA-NO which was then plotted. IP and maximum fold induction was derived using ADA analysis software for 4P fit.
Background: TR-FRET usually uses a lanthanide donor and a delayed reading to cut background.

Take `Cn1ncc2c(-c3nc(N)c4c(n3)NC(=O)C4(C)c3ccccc3)nc(CCCC(F)(F)F)nc21` (single isomer, unassigned) [Example 3, 4-Amino-5-methyl-2-(1-methyl-6-(4,4,4-trifluorobutyl)-1H-pyrazolo[3,4-d]pyrimidin-4-yl)-5-phenyl-5H-pyrrolo[2,3-d]pyrimidin-6(7H)-one]: the EC50 was determined as 119 nM and the Emax was found to be 132%.

With `Cn1ncc2c(-c3nc(N)c4c(n3)NC(=O)C4(C)c3ccc(F)cc3)nc(CC3CC(F)(F)C3)nc21` (single isomer, unassigned) [Example 5, 4-Amino-2-(6-((3,3-difluorocyclobutyl)methyl)-1-methyl-1H-pyrazolo[3,4-d]pyrimidin-4-yl)-5-(4-fluorophenyl)-5-methyl-5H-pyrrolo[2,3-d]pyrimidin-6(7H)-one], the response was half-maximal at 53 nM (EC50) and the Emax was found to be 122%.

`CC1(c2ccc(F)cc2)C(=O)Nc2nc(-c3nc(CCC(F)(F)C(F)(F)F)nc4[nH]ncc34)nc(N)c21` (single isomer, unassigned) [Example 8, 4-Amino-5-(4-fluorophenyl)-5-methyl-2-(6-(3,3,4,4,4-pentafluorobutyl)-1H-pyrazolo[3,4-d]pyrimidin-4-yl)-5H-pyrrolo[2,3-d]pyrimidin-6(7H)-one]: the EC50 amounted to 341 nM and the Emax turned out to be 109%.

For `Cn1ncc2c(-c3nc(N)c4c(n3)NC(=O)C4(C)c3ccc(Br)cc3)nc(CCC(F)(F)C(F)(F)F)nc21` (single isomer, unassigned) [Example 10, 4-Amino-5-(4-bromophenyl)-5-methyl-2-(1-methyl-6-(3,3,4,4,4-pentafluorobutyl)-1H-pyrazolo[3,4-d]pyrimidin-4-yl)-5H-pyrrolo[2,3-d]pyrimidin-6(7H)-one], a half-maximal response (EC50) required 197 nM and the Emax turned out to be 116%.

On to `Cn1ncc2c(-c3nc(N)c4c(n3)NC(=O)C4(C)c3ccc(F)cc3)nc(CCC(F)(F)F)nc21` (single isomer, unassigned) [Example 11, 4-Amino-5-(4-fluorophenyl)-5-methyl-2-(1-methyl-6-(3,3,3-trifluoropropyl)-1H-pyrazolo[3,4-d]pyrimidin-4-yl)-5H-pyrrolo[2,3-d]pyrimidin-6(7H)-one], for which the EC50 was 146 nM and the Emax is 121%.

Turning to `[2H]C([2H])([2H])n1ncc2c(-c3nc(N)c4c(n3)NC(=O)C4(C)c3ccccc3)nc(CCC(F)(F)C(F)(F)F)nc21` (single isomer, unassigned) [Example 13, 4-Amino-5-methyl-2-(6-(3,3,4,4,4-pentafluorobutyl)-1-trideuteriomethyl-1H-pyrazolo[3,4-d]pyrimidin-4-yl)-5-phenyl-5H-pyrrolo[2,3-d]pyrimidin-6(7H)-one], a half-maximal response (EC50) required 40 nM and the Emax came out at 101%.

With `[2H]C([2H])([2H])n1ncc2c(-c3nc(N)c4c(n3)NC(=O)C4(C)c3cccc(OC)c3)nc(CCC(F)(F)C(F)(F)F)nc21` (single isomer, unassigned) [Example 14, 4-Amino-5-(3-methoxyphenyl)-5-methyl-2-(6-(3,3,4,4,4-pentafluorobutyl)-1-trideuteriomethyl-1H-pyrazolo[3,4-d]pyrimidin-4-yl)-5H-pyrrolo[2,3-d]pyrimidin-6(7H)-one], the EC50 was determined as 21 nM and the Emax was found to be 110%.

For `COc1ccc(C2(C)C(=O)Nc3nc(-c4nc(CCCC(F)(F)F)nc5c4cnn5C)nc(N)c32)cc1F` (single isomer, unassigned) [Example 15, 4-Amino-5-(3-fluoro-4-methoxyphenyl)-5-methyl-2-(1-methyl-6-(4,4,4-trifluorobutyl)-1H-pyrazolo[3,4-d]pyrimidin-4-yl)-5H-pyrrolo[2,3-d]pyrimidin-6(7H)-one], the EC50 amounted to 52 nM and the Emax turned out to be 113%.

As to `COc1ccc(C2(C)C(=O)Nc3nc(-c4nc(CCC(F)(F)C(F)(F)F)nc5c4cnn5C)nc(N)c32)cc1F` (single isomer, unassigned) [Example 16, 4-Amino-5-(3-fluoro-4-methoxyphenyl)-5-methyl-2-(1-methyl-6-(3,3,4,4,4-pentafluorobutyl)-1H-pyrazolo[3,4-d]pyrimidin-4-yl)-5H-pyrrolo[2,3-d]pyrimidin-6(7H)-one], the EC50 came out at 15 nM and the Emax was found to be 112%.

Turning to `[2H]C([2H])([2H])n1ncc2c(-c3nc(N)c4c(n3)NC(=O)C4(C)C3CC3)nc(CCC(F)(F)C(F)(F)F)nc21` (single isomer, unassigned) [Example 17, 4-Amino-5-cyclopropyl-5-methyl-2-(6-(3,3,4,4,4-pentafluorobutyl)-1-trideuteriomethyl-1H-pyrazolo[3,4-d]pyrimidin-4-yl)-5H-pyrrolo[2,3-d]pyrimidin-6(7H)-one], the EC50 is 286 nM and the Emax was found to be 104%.

In the case of `Cn1ncc2c(-c3nc(N)c4c(n3)NC(=O)C4(C)C3CCCCC3)nc(CCC(F)(F)C(F)(F)F)nc21` (single isomer, unassigned) [Example 18, 4-Amino-5-cyclohexyl-5-methyl-2-(1-methyl-6-(3,3,4,4,4-pentafluorobutyl)-1H-pyrazolo[3,4-d]pyrimidin-4-yl)-5H-pyrrolo[2,3-d]pyrimidin-6(7H)-one], a half-maximal response (EC50) required 171 nM and the Emax was 122%.

Take `CCn1ncc2c(-c3nc(N)c4c(n3)NC(=O)C4(C)c3ccc(F)cc3)nc(CCC(F)(F)C(F)(F)F)nc21` (single isomer, unassigned) [Example 19, 4-Amino-2-(1-ethyl-6-(3,3,4,4,4-pentafluorobutyl)-1H-pyrazolo[3,4-d]pyrimidin-4-yl)-5-(4-fluorophenyl)-5-methyl-5H-pyrrolo[2,3-d]pyrimidin-6(7H)-one]: a half-maximal response (EC50) required 53 nM and the Emax is 119%.

For the compound `CCn1ncc2c(-c3nc(N)c4c(n3)NC(=O)C4(C)c3ccc(F)cc3)nc(CCCC(F)(F)F)nc21` (single isomer, unassigned) [Example 20, 4-Amino-2-(1-ethyl-6-(4,4,4-trifluorobutyl)-1H-pyrazolo[3,4-d]pyrimidin-4-yl)-5-(4-fluorophenyl)-5-methyl-5H-pyrrolo[2,3-d]pyrimidin-6(7H)-one], the EC50 was 143 nM and the Emax came out at 123%.
